Experiments:
Test in all cases: X-ray crystal structure, […] A
Format in all cases: binding
[1] = biological target: T1, ScRIPK-KD (ScRIPK kinase domain) (Saccharum hybrid cultivar, UniProt A0ACD6BAX3, S187A/T188A); conditions: crystallised in 0.1 M HEPES pH 7.5, 4.3 M sodium chloride, 291 K; active site
T1 construct: gene NCGR_LOCUS634; kinase domain 72-378 of 425 aa; PRSF-duet vector, Ni-NTA purified from E. coli BL21(DE3); wild type autophosphorylated at T250, S253, T254; one kinase domain per asymmetric unit

[2] = biological target: T2, ScRIPK-KD (ScRIPK kinase domain) (Saccharum hybrid cultivar, UniProt A0ACD6BAX3); conditions: Mg2+ bound; crystallised in 0.1 M HEPES pH 7.5, 40% v/v PEG 400, 291 K; active site
T2 construct: gene NCGR_LOCUS634; kinase domain 72-378 of 425 aa; PRSF-duet vector, Ni-NTA purified from E. coli BL21(DE3); wild type autophosphorylated at T250, S253, T254; one kinase domain per asymmetric unit

[3] = biological target: T3, ScRIPK-KD (ScRIPK kinase domain) (Saccharum hybrid cultivar, UniProt A0ACD6BAX3, K58R); conditions: crystallised in 0.1 M HEPES pH 7.5, 4.3 M sodium chloride, 291 K; active site
T3 construct: gene NCGR_LOCUS634; kinase domain 72-378 of 425 aa; PRSF-duet vector, Ni-NTA purified from E. coli BL21(DE3); wild type autophosphorylated at T250, S253, T254; one kinase domain per asymmetric unit
T3 sequence (A0ACD6BAX3 entry or part of it K58R): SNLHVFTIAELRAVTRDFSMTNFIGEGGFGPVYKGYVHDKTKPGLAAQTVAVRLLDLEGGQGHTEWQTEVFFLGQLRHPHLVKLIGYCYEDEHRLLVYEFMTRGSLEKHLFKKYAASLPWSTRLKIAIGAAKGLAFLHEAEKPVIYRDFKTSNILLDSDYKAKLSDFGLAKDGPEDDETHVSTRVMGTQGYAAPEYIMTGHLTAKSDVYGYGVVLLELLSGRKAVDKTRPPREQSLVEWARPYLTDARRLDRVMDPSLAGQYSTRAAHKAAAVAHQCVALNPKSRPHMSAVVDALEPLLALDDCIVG

T1 sequence (A0ACD6BAX3 entry or part of it S187A/T188A): as the sequence (A0ACD6BAX3 entry or part of it K58R) above, with R53K, S182A, T183A counted along it
T2 sequence (A0ACD6BAX3 entry or part of it): as the sequence (A0ACD6BAX3 entry or part of it K58R) above, with R53K counted along it

SMILES	X-ray crystal structure, 1.95 A [1]	X-ray crystal structure, 2.10 A [2]	X-ray crystal structure, 1.68 A [3]
Nc1ncnc2c1ncn2[C@@H]1O[C@H](COP(=O)(O)OP(=O)(O)O)[C@@H](O)[C@H]1O [ADP]	In the ScRIPK-KD S253A|T254A mutant structure, Y169 and E170–M172 formed a deep cavity		
Nc1ncnc2c1ncn2[C@@H]1O[C@H](COP(=O)(O)OP(=O)(O)OP(=O)(O)O)[C@@H](O)[C@H]1O [ATP]		The ScRIPK-ATP protein complex crystal was successfully obtained in the reservoir solution	the mutant protein ScRIPK-KD K124R was purified and crystallized with ATP

From publication PMC10248867, “Receptor-like cytoplasmic kinase ScRIPK in sugarcane regulates disease resistance and drought tolerance in Arabidopsis” (Frontiers in Plant Science, 2023)
